PubChem BioAssay AID248 (DTP/NCI, 2004)
Values joined by “and” are separate entries in the source; they are usually repeats but may differ in a detail not shown here. Identical values can stand only once. Inconclusive results and toxic doses are left out.

System: L1210 leukemia ip in BDF1 mice, survival T/C
Assay: NCI In Vivo Anticancer Drug Screen. Data for tumor model L1210 Leukemia (intraperitoneal) in B6D2F1 (BDF1) mice
Conditions: endpoint: mean survival time, higher = longer survival
Method in brief: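 Survival endpoint. Drug-treated group vs vehicle group, expressed as T divided by C. Tumor passaged by transplantation.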

[1] = dose: 100.0 mg/kg/injection, schedule: Q01DX009 (ip), vehicle: saline with Tween-80
[2] = dose: 100.0 mg/kg/injection, schedule: Q04DX003 (ip), vehicle: saline with Tween-80
[3] = dose: 200.0 mg/kg/injection, schedule: Q01DX009 (ip), vehicle: saline with Tween-80
[4] = dose: 200.0 mg/kg/injection, schedule: Q04DX003 (ip), vehicle: saline with Tween-80
[5] = dose: 400.0 mg/kg/injection, schedule: Q01DX009 (ip), vehicle: saline with Tween-80
[6] = dose: 400.0 mg/kg/injection, schedule: Q04DX003 (ip), vehicle: saline with Tween-80
[7] = dose: 25.0 mg/kg/injection, schedule: Q04DX002 (ip), vehicle: saline with Tween-80
[8] = dose: 50.0 mg/kg/injection, schedule: Q04DX002 (ip), vehicle: saline with Tween-80
[9] = dose: 100.0 mg/kg/injection, schedule: Q04DX002 (ip), vehicle: saline with Tween-80
[10] = dose: 300.0 mg/kg/injection, schedule: Q01DX001 (ip), vehicle: saline
[11] = dose: 100.0 mg/kg/injection, schedule: Q01DX001 (ip), vehicle: Klucel (hydroxypropylcellulose) (HPC)
[12] = dose: 200.0 mg/kg/injection, schedule: Q01DX001 (ip), vehicle: Klucel (hydroxypropylcellulose) (HPC)
[13] = dose: 400.0 mg/kg/injection, schedule: Q01DX001 (ip), vehicle: Klucel (hydroxypropylcellulose) (HPC)
[14] = dose: 100.0 mg/kg/injection, schedule: Q01DX001 (ip), vehicle: saline
[15] = dose: 100.0 mg/kg/injection, schedule: Q01DX009 (ip), vehicle: Klucel (hydroxypropylcellulose) (HPC)
[16] = dose: 200.0 mg/kg/injection, schedule: Q01DX009 (ip), vehicle: Klucel (hydroxypropylcellulose) (HPC)
[17] = dose: 200.0 mg/kg/injection, schedule: Q01DX001 (ip), vehicle: saline
[18] = dose: 400.0 mg/kg/injection, schedule: Q01DX001 (ip), vehicle: saline

In the case of [Br][Bi]([Br])([c]1ccccc1)([c]1ccccc1)[c]1ccccc1, the T/C (dose: 12.5 mg/kg/injection, schedule: Q04DX002 (ip), vehicle: Klucel (hydroxypropylcellulose) (HPC)) is reported as 97 % of control, the T/C (dose: 25.0 mg/kg/injection, schedule: Q04DX002 (ip), vehicle: Klucel (hydroxypropylcellulose) (HPC)) is reported as 101 % of control and the T/C (dose: 50.0 mg/kg/injection, schedule: Q04DX002 (ip), vehicle: Klucel (hydroxypropylcellulose) (HPC)) is reported as 104 % of control. The T/C (dose: 100.0 mg/kg/injection, schedule: Q04DX002 (ip), vehicle: Klucel (hydroxypropylcellulose) (HPC)) was 97 % of control.

In the case of CCCC(=O)OC1CC(C)CCC1C(C)C (stereo not given), the T/C (dose: 25.6 mg/kg/injection, schedule: Q04DX002 (ip), vehicle: saline with Tween-80) is reported as 96 % of control, the T/C (dose: 64.0 mg/kg/injection, schedule: Q04DX002 (ip), vehicle: saline with Tween-80) is reported as 96 % of control and the T/C [1] is reported as 90 % of control. For the same compound, the T/C [2] was 88 % of control, the T/C (dose: 160.0 mg/kg/injection, schedule: Q04DX002 (ip), vehicle: saline with Tween-80) was 92 % of control and the T/C [3] was 94 % of control. The T/C [4] was 94 % of control, the T/C [5] was 92 % of control and the T/C (dose: 400.0 mg/kg/injection, schedule: Q04DX002 (ip), vehicle: saline with Tween-80) was 96 % of control. The T/C [6] was 100 % of control.

For N=C(N)SCc1cccc(Cl)c1, the T/C [7] was 100 % of control, the T/C [8] was 93 % of control and the T/C [9] was 90 % of control.

With C/C(=N\N=C(/C)c1ccc2ccccc2c1)c1ccc2ccccc2c1 the T/C [2] was 94 % of control and the T/C [4] was 91 % of control.

With CCOc1ccc([N+](=O)[O-])cc1N(C)C(C)=O the T/C (dose: 75.0 mg/kg/injection, schedule: Q01DX001 (ip), vehicle: saline) was 102 % of control, the T/C (dose: 150.0 mg/kg/injection, schedule: Q01DX001 (ip), vehicle: saline) was 102 % of control and the T/C [10] was 107 % of control.

In the case of Nc1ccc(C2=NCCO2)cc1, the T/C [11] is reported as 92 % of control, the T/C [12] is reported as 103 % of control and the T/C [13] is reported as 96 % of control.

In the case of Cc1c[nH]c2nccnc12, the T/C (dose: 100.0 mg/kg/injection, schedule: Q01DX009 (ip), vehicle: water) is reported as 102 % of control, the T/C (dose: 100.0 mg/kg/injection, schedule: Q04DX003 (ip), vehicle: water) is reported as 108 % of control and the T/C (dose: 200.0 mg/kg/injection, schedule: Q01DX009 (ip), vehicle: water) is reported as 96 % of control. The T/C (dose: 200.0 mg/kg/injection, schedule: Q04DX003 (ip), vehicle: water) was 98 % of control, the T/C (dose: 400.0 mg/kg/injection, schedule: Q01DX009 (ip), vehicle: water) was 105 % of control and the T/C (dose: 400.0 mg/kg/injection, schedule: Q04DX003 (ip), vehicle: water) was 101 % of control.

NC(=O)c1ccc([N+](=O)[O-])cc1C(N)=O was tested, and the T/C (dose: 25.0 mg/kg/injection, schedule: Q01DX001 (ip), vehicle: saline) was 111 % of control, the T/C (dose: 50.0 mg/kg/injection, schedule: Q01DX001 (ip), vehicle: saline) was 97 % of control and the T/C [14] was 104 % of control.

COCCOC(=O)C(=O)OCCOC was tested, and the T/C (dose: 50.0 mg/kg/injection, schedule: Q01DX009 (ip), vehicle: Klucel (hydroxypropylcellulose) (HPC)) was 95 % of control, the T/C [11] was 97 % of control and the T/C [15] was 97 % of control. The T/C [12] was 90 % of control and the T/C [16] was 93 % of control.

O=NN(CC(F)(F)F)C(=O)NCC(F)(F)F was tested, and the T/C (dose: 8.0 mg/kg/injection, schedule: Q01DX001 (ip), vehicle: carboxymethylcellulose (CMC)) was 113 % of control, the T/C (dose: 16.0 mg/kg/injection, schedule: Q01DX001 (ip), vehicle: carboxymethylcellulose (CMC)) was 113 % of control and the T/C (dose: 31.0 mg/kg/injection, schedule: Q01DX001 (ip), vehicle: carboxymethylcellulose (CMC)) was 113 % of control. The T/C (dose: 62.0 mg/kg/injection, schedule: Q01DX001 (ip), vehicle: carboxymethylcellulose (CMC)) was 113 % of control, the T/C (dose: 125.0 mg/kg/injection, schedule: Q01DX001 (ip), vehicle: carboxymethylcellulose (CMC)) was 113 % of control and the T/C (dose: 187.0 mg/kg/injection, schedule: Q01DX001 (ip), vehicle: carboxymethylcellulose (CMC)) was 112 % of control. For the same compound, the T/C (dose: 250.0 mg/kg/injection, schedule: Q01DX001 (ip), vehicle: carboxymethylcellulose (CMC)) was 107 % of control, the T/C (dose: 375.0 mg/kg/injection, schedule: Q01DX001 (ip), vehicle: carboxymethylcellulose (CMC)) was 113 % of control and the T/C (dose: 500.0 mg/kg/injection, schedule: Q01DX001 (ip), vehicle: carboxymethylcellulose (CMC)) was 118 % of control.

For C=CCOP(=O)(N1CC1C)N1CC1C (stereo not given), the T/C (dose: 29.0 mg/kg/injection, schedule: Q01DX015 (ip), vehicle: saline) was 105 % of control, the T/C (dose: 44.0 mg/kg/injection, schedule: Q01DX015 (ip), vehicle: saline) was 120 % of control and the T/C (dose: 66.0 mg/kg/injection, schedule: Q01DX015 (ip), vehicle: saline) was 114 % of control. The T/C (dose: 89.0 mg/kg/injection, schedule: Q01DX001 (ip), vehicle: saline) was 108 % of control, the T/C [17] was 152 % of control and the T/C [10] was 115 % of control. The T/C [18] was 86 % of control.

With OC(c1ccc(Cl)cc1)c1ccc(Cl)cc1 the T/C (dose: 75.0 mg/kg/injection, schedule: Q01DX001 (ip), vehicle: acetone) was 97 % of control, the T/C (dose: 150.0 mg/kg/injection, schedule: Q01DX001 (ip), vehicle: acetone) was 97 % of control and the T/C (dose: 300.0 mg/kg/injection, schedule: Q01DX001 (ip), vehicle: acetone) was 94 % of control.

In the case of COC(=O)c1n[nH]c(C(C)C)c1N=NN(C)C, the T/C (dose: 50.0 mg/kg/injection, schedule: Q01DX009 (ip), vehicle: saline with Tween-80) is reported as 116 % of control, the T/C [2] is reported as 116 % of control and the T/C (dose: 132.0 mg/kg/injection, schedule: Q04DX003 (ip), vehicle: saline with Tween-80) is reported as 111 % of control. The T/C [4] was 119 % of control, the T/C (dose: 300.0 mg/kg/injection, schedule: Q04DX003 (ip), vehicle: saline with Tween-80) was 111 % of control and the T/C [6] was 96 % of control.

In the case of CCCCCCCC(=O)Nc1c(C)cccc1C, the T/C [2] is reported as 97 % of control, the T/C [4] is reported as 93 % of control and the T/C [6] is reported as 93 % of control.

With CSc1nc(C)c(Br)c(Sc2nc(N)nc3nc[nH]c23)n1 the T/C (dose: 100.0 mg/kg/injection, schedule: Q01DX Z (ip), vehicle: methylcellulose (MC)) was 87 % of control.

For CCOC(=O)CSC, the T/C [1] was 99 % of control, the T/C [2] was 101 % of control and the T/C [3] was 94 % of control. For the same compound, the T/C [4] was 106 % of control, the T/C [5] was 100 % of control and the T/C [6] was 98 % of control.

With CCCCSP(=O)(c1ccccc1)N1CCCCC1 (stereo not given) the T/C [7] was 100 % of control, the T/C [8] was 92 % of control and the T/C [9] was 92 % of control and 97 % of control.

With CN(C(=O)OCc1ccccc1)c1ccc(C(=O)O)cc1 the T/C [14] was 97 % of control, the T/C [17] was 94 % of control and the T/C [18] was 97 % of control.

For CCn1c(C)nc2cc(S(=O)(=O)C(F)(F)C(F)Cl)ccc21 (stereo not given), the T/C [11] was 100 % of control, the T/C [15] was 94 % of control and the T/C [12] was 97 % of control. The T/C [16] was 101 % of control, the T/C [13] was 97 % of control and the T/C (dose: 400.0 mg/kg/injection, schedule: Q01DX009 (ip), vehicle: Klucel (hydroxypropylcellulose) (HPC)) was 106 % of control.

For CCC(O)CN (stereo not given), the T/C (dose: 100.0 mg/kg/injection, schedule: Q04DX003 (ip), vehicle: saline) was 96 % of control and 107 % of control, the T/C (dose: 200.0 mg/kg/injection, schedule: Q04DX003 (ip), vehicle: saline) was 96 % of control and the T/C (dose: 400.0 mg/kg/injection, schedule: Q04DX003 (ip), vehicle: saline) was 95 % of control.

O=[N+]([O-])c1ccc(OCCCCOc2ccccc2)c(Cl)c1 was tested, and the T/C (dose: 100.0 mg/kg/injection, schedule: Q04DX003 (ip), vehicle: Klucel (hydroxypropylcellulose) (HPC)) was 95 % of control, the T/C (dose: 200.0 mg/kg/injection, schedule: Q04DX003 (ip), vehicle: Klucel (hydroxypropylcellulose) (HPC)) was 96 % of control and the T/C (dose: 400.0 mg/kg/injection, schedule: Q04DX003 (ip), vehicle: Klucel (hydroxypropylcellulose) (HPC)) was 91 % of control.

O=c1[nH]c2cc([N+](=O)[O-])ccc2c2ccc(Cl)cc12 was tested, and the T/C (dose: 100.0 mg/kg/injection, schedule: Q01DX001 (ip), vehicle: carboxymethylcellulose (CMC)) was 102 % of control, the T/C (dose: 200.0 mg/kg/injection, schedule: Q01DX001 (ip), vehicle: carboxymethylcellulose (CMC)) was 91 % of control and the T/C (dose: 400.0 mg/kg/injection, schedule: Q01DX001 (ip), vehicle: carboxymethylcellulose (CMC)) was 95 % of control.
